Reference: patent US8802674B2, “Aminopyrimidine derivatives as LRRK2 modulators” (Genentech, Inc., priority 2011, dated 2014)
pKi: −log10 of the molar value.

These compounds were tested against LRRK2 (Homo sapiens (Human), UniProt Q5S007, G2019S) (assay: In Vitro LRRK2 LabChip Assay). Settings: Table 4.
Format: biochemical
Description: In Vitro LRRK2 LabChip Assay
This assay was used to determine a compound's potency in inhibiting activity of LRRK2 by determining, Kiapp, IC50, or percent inhibition values. In a polypropylene plate, LRRK2, fluorescently-labeled peptide substrate, ATP and test compound were incubated together. Using a LabChip 3000 (Caliper Life Sciences), after the reaction the substrate was separated by capillary electrophoresis into two populations: phosphorylated and unphosphorylated. The relative amounts of each were quantitated by fluorescence intensity. LRRK2 Ki was determined according to the equation: Y=V0*(1−((x+Ki*(1+S/Km)+Et)/(2*Et)−(((x+Ki*(1+S/Km)+Et)^2−(4*Et*x))^0.5)/(2*Et))). Ki values in Table 4 and elsewhere herein are shown in μM.
Assay conditions and materials used were as follows:
Compound Plate Preparation:
For serial dilutions, 34.6 μl DMSO was added to columns 3-24. For the assay controls, 37.5 μl DMSO was added to columns 1 and 2 of rows A and P. a,d and 50 μl 25 μM G-028831 (Staurosporine) was added to columns 1 and 2, row B. For the samples: to start at 100 μM, 37.5 μl DMSO was to columns 1 and 2, then 12.5 μl 10 mM compound; to start at 10 μM, 78 μl DMSO was added to columns 1 & 2, then 2 μl 10 mM compound; and to start at 1 μM, 25 μM compound (2 μl 10 mM cmpd+798 μl DMSO) was added to empty columns 1 and 2. A Precision instrument was used to perform 1:3.16 serial dilutions (“PLK_BM_serial_halflog”).
ATP was diluted to 282.1 μM in Complete Kinase Buffer (final concentration was 130 μM).
Total and Blank Preparation:
In Complete Reaction Buffer, substrate was diluted to 4 μM. Equal volumes of Complete Reaction Buffer and 4 μM substrate were combined to obtain the blank. Equal volumes of Complete Reaction Buffer and 4 μM substrate were combined and to the combined solution was added 2× final LRRK2 concentration.
To a 50 μl polypropylene plate, 5 μl/well buffer/substrate was added by hand to Blank wells. A Biomek FX was used to start the kinase reaction (“PLK SAR 23 ATP”). The following were added to the appropriate wells:
5 μl/well compound/ATP in Assay Plate;
5 μl/well kinase/substrate in Assay Plate;
The plate was incubated for 2 hours in the dark. Biomek FX was used to stop the kinase reaction (“PLK Stop”), and 10 μl/well Stop solution was added to the Assay Plate. Results were read on the LabChip 3000.
The LabChip 3000 was run using the job “LRRK2IC50” with the following job settings: […]

LRRK2, sequence (Q5S007 970-2527 G2019S limits assumed): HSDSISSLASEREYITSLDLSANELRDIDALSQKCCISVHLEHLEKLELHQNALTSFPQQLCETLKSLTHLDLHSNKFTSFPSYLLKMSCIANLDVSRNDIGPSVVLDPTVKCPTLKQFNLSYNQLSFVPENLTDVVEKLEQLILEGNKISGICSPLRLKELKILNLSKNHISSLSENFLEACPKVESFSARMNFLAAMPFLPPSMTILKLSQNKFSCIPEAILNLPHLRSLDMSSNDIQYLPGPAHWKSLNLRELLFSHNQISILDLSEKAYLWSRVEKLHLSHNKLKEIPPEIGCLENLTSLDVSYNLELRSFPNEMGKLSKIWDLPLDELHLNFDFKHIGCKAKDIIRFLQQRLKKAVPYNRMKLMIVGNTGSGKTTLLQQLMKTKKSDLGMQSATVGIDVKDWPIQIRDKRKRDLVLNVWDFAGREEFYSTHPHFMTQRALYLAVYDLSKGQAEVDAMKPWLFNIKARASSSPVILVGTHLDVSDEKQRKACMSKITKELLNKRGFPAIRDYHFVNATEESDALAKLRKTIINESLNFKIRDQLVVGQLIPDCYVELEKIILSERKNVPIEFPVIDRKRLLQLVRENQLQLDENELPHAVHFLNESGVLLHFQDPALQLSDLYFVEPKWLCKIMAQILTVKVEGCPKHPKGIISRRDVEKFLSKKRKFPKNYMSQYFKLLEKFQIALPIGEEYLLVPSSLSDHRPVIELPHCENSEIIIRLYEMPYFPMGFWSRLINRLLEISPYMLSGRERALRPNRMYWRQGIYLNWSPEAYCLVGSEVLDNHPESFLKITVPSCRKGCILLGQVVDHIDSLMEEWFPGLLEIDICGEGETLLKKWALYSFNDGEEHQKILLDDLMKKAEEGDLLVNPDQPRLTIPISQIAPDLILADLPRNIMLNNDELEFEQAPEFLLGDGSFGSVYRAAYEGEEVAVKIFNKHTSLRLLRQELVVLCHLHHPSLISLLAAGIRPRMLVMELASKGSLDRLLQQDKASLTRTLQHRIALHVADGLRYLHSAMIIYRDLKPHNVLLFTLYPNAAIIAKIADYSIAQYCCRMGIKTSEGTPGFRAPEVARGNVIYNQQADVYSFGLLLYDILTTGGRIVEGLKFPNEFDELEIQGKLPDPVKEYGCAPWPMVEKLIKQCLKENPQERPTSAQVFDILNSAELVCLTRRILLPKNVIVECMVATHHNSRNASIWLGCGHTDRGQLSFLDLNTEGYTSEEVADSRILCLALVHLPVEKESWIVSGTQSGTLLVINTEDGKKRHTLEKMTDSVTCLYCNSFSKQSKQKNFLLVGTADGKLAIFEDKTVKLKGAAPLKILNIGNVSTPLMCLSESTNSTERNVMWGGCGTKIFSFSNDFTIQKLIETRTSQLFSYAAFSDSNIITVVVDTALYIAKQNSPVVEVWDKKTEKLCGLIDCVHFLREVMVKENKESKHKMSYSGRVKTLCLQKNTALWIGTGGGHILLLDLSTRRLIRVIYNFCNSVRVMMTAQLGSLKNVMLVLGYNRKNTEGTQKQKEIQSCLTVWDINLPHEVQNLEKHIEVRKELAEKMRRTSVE

SMILES	pKi
CNc1nc(Nc2ccc(C(=O)N3CCC(F)C3)cc2OC)ncc1C#N (stereo in doubt) [Example 210, 2-[4-((R)-3-Fluoropyrrolidine-1-carbonyl)-2-methoxy-phenylamino]-4-methylamino-pyrimidine-5-carbonitrile]	8.03
CNc1nc(Nc2ccc(C(=O)N3CCC(O)CC3)cc2OC)ncc1F [Example 2, [4-(5-Fluoro-4-methylamino-pyrimidin-2-ylamino)-3-methoxy-phenyl]-(4-hydroxy-piperidin-1-yl)-methanone]	7.35
CNc1nc(Nc2ccc(C(=O)N(C)C)cc2OC)ncc1Cl [Example 4, 4-(5-Chloro-4-methylamino-pyrimidin-2-ylamino)-3-methoxy-N,N-dimethyl-benzamide]	8.21
CNc1nc(Nc2ccc(C(=O)NC3CC3)cc2OC)ncc1Cl [Example 5, 4-(5-Chloro-4-methylamino-pyrimidin-2-ylamino)-N-cyclopropyl-3-methoxy-benzamide]	8.62
CNc1nc(Nc2ccc(C(=O)N3CCOCC3)cc2OC(F)F)ncc1Cl [Example 7, [4-(5-Chloro-4-methylamino-pyrimidin-2-ylamino)-3-difluoromethoxy-phenyl]-morpholin-4-yl-methanone]	8.31
CNc1nc(Nc2ccc(C(=O)N3CCN4CCCCC4C3)cc2OC)ncc1Cl (centres unmarked) [Example 8, [4-(5-Chloro-4-methylamino-pyrimidin-2-ylamino)-3-methoxy-phenyl]-(octahydro-pyrido[1,2-a]pyrazin-2-yl)-methanone]	8.46
CNc1nc(Nc2ccc(C(=O)N3CC(C)CC(C)C3)cc2OC)ncc1Cl (centres unmarked) [Example 11, [4-(5-Chloro-4-methylamino-pyrimidin-2-ylamino)-3-methoxy-phenyl]-(3,5-dimethyl-piperidin-1-yl)-methanone]	8.21
CNc1nc(Nc2ccc(C(=O)N3CCCCC3)cc2OC)ncc1Cl [Example 15, [4-(5-Chloro-4-methylamino-pyrimidin-2-ylamino)-3-methoxy-phenyl]-piperidin-1-yl-methanone]	8.60
CNc1nc(Nc2ccc(C(=O)N3CCC3)cc2OC)ncc1Cl [Example 16, Azetidin-1-yl-[4-(5-chloro-4-methylamino-pyrimidin-2-ylamino)-3-methoxy-phenyl]-methanone]	8.28
CNc1nc(Nc2ccc(C(=O)N3CCC(F)(F)CC3)cc2OC)ncc1Cl [Example 17, [4-(5-Chloro-4-methylamino-pyrimidin-2-ylamino)-3-methoxy-phenyl]-(4,4-difluoro-piperidin-1-yl)-methanone]	8.52
CNc1nc(Nc2ccc(C(=O)N3CCN(C(C)=O)CC3)cc2OC)ncc1Cl [Example 25, l-{4-[4-(5-Chloro-4-methylamino-pyrimidin-2-ylamino)-3-methoxy-benzoyl]-piperazin-1-yl}-ethanone]	8.47
CNc1nc(Nc2ccc(C(=O)N3CCCC(C(F)(F)F)C3)cc2OC)ncc1Cl (centres unmarked) [Example 26, [4-(5-Chloro-4-methylamino-pyrimidin-2-ylamino)-3-methoxy-phenyl]-(3-trifluoromethyl-piperidin-1-yl)-methanone]	8.55
CNc1nc(Nc2ccc(C(=O)N3CCCC3C)cc2OC)ncc1Cl (centres unmarked) [Example 29, [4-(5-Chloro-4-methylamino-pyrimidin-2-ylamino)-3-methoxy-phenyl]-(2-methyl-pyrrolidin-1-yl)-methanone]	8.42
CNc1nc(Nc2ccc(C(=O)N3CCCC3)cc2OC)ncc1Cl [Example 32, [4-(5-Chloro-4-methylamino-pyrimidin-2-ylamino)-3-methoxy-phenyl]-pyrrolidin-1-yl-methanone]	8.33
CNc1nc(Nc2ccc(C(=O)N3CCN(S(C)(=O)=O)CC3)cc2OC)ncc1Cl [Example 33, [4-(5-Chloro-4-methylamino-pyrimidin-2-ylamino)-3-methoxy-phenyl]-(4-methanesulfonyl-piperazin-1-yl)-methanone]	8.44
CCC1(CC)CN(C(=O)c2ccc(Nc3ncc(Cl)c(NC)n3)c(OC)c2)CCO1 [Example 39, [4-(5-Chloro-4-methylamino-pyrimidin-2-ylamino)-3-methoxy-phenyl]-(2,2-diethyl-morpholin-4-yl)-methanone]	8.26

SMILES	pKi
CNc1nc(Nc2ccc(C(=O)N3CCOCC3CO)cc2OC)ncc1Cl (centres unmarked) [Example 40, [4-(5-Chloro-4-methylamino-pyrimidin-2-ylamino)-3-methoxy-phenyl]-(3-hydroxymethyl-morpholin-4-yl)-methanone]	8.36
CNc1nc(Nc2ccc(C(=O)N3CCOC(CC(C)C)C3)cc2OC)ncc1Cl (centres unmarked) [Example 41, [4-(5-Chloro-4-methylamino-pyrimidin-2-ylamino)-3-methoxy-phenyl]-(2-isobutyl-morpholin-4-yl)-methanone]	8.38
CNc1nc(Nc2ccc(C(=O)N3CCNCC3)cc2OC)ncc1Cl [Example 47, [4-(5-Chloro-4-methylamino-pyrimidin-2-ylamino)-3-methoxy-phenyl]-piperazin-1-yl-methanone]	8.55
CCOc1cc(C(=O)N2CCOCC2)ccc1Nc1ncc(Cl)c(NC)n1 [Example 49, [4-(5-Chloro-4-methylamino-pyrimidin-2-ylamino)-3-ethoxy-phenyl]-morpholin-4-yl-methanone]	8.37
CNc1nc(Nc2ccc(C(=O)N3CCOCC3)cc2OC)ncc1C(F)(F)F [Example 50, [3-Methoxy-4-(4-methylamino-5-trifluoromethyl-pyrimidin-2-ylamino)-phenyl]-morpholin-4-yl-methanone]	8.57
CNc1nc(Nc2ccc(C(N)=O)cc2OC)ncc1Cl [Example 51, 4-(5-Chloro-4-methylamino-pyrimidin-2-ylamino)-3-methoxy-benzamide]	8.29
CNc1nc(Nc2ccc(C(=O)NC(C)C)cc2OC)ncc1Cl [Example 53, 4-(5-Chloro-4-methylamino-pyrimidin-2-ylamino)-N-isopropyl-3-methoxy-benzamide]	8.70
CNc1nc(Nc2ccc(C(=O)N3C4CCC3COC4)cc2OC)ncc1Cl [Example 57, [4-(5-Chloro-4-methylamino-pyrimidin-2-ylamino)-3-methoxy-phenyl]-(3-oxa-8-aza-bicyclo[3.2.1]oct-8-yl)-methanone]	8.60
COc1cc(C(=O)N2CCOCC2)ccc1Nc1ncc(Cl)c(OC(C)C)n1 [Example 59, [4-(5-Chloro-4-isopropoxy-pyrimidin-2-ylamino)-3-methoxy-phenyl]-morpholin-4-yl-methanone]	7.89
COc1cc(C(=O)N2CCOCC2)ccc1Nc1ncc(Cl)c(OC)n1 [Example 61, [4-(5-Chloro-4-methoxy-pyrimidin-2-ylamino)-3-methoxy-phenyl]-morpholin-4-yl-methanone]	7.98
CNc1nc(Nc2ccc(C(=O)N3CC4CC3CO4)cc2OC)ncc1Cl (centres unmarked) [Example 62, [4-(5-Chloro-4-methylamino-pyrimidin-2-ylamino)-3-methoxy-phenyl]-(2-oxa-5-aza-bicyclo[2.2.1]hept-5-yl)-methanone]	8.35
CNc1nc(Nc2ccc(C(=O)N3CC4CCC(C3)O4)cc2OC)ncc1Cl [Example 63, [4-(5-Chloro-4-methylamino-pyrimidin-2-ylamino)-3-methoxy-phenyl]-(8-oxa-3-aza-bicyclo[3.2.1]oct-3-yl)-methanone]	8.70
CNc1nc(Nc2ccc(C(=O)NCCCN)cc2OC)ncc1Cl [Example 65, N-(3-Amino-propyl)-4-(5-chloro-4-methylamino-pyrimidin-2-ylamino)-3-methoxy-benzamide]	8.64
CNc1nc(Nc2ccc(C(=O)N3CCOCC3)cc2OC)ncc1C1CC1 [Example 66, [4-(5-Cyclopropyl-4-methylamino-pyrimidin-2-ylamino)-3-methoxy-phenyl]-morpholin-4-yl-methanone]	7.44
COc1cc(C(=O)N2CCOCC2)ccc1Nc1ncc(Cl)c(NCC(C)C)n1 [Example 67, [4-(5-Chloro-4-isobutylamino-pyrimidin-2-ylamino)-3-methoxy-phenyl]-morpholin-4-yl-methanone]	8.40
CNc1nc(Nc2ccc(C(=O)N3CCN(C(=O)C4CC4)CC3)cc2OC)ncc1Cl [Example 70, [4-(5-Chloro-4-methylamino-pyrimidin-2-ylamino)-3-methoxy-phenyl]-(4-cyclopropanecarbonyl-piperazin-1-yl)-methanone]	8.66
